# Test results as given in US10071981B2, “Method of priming plants against abiotic stress factors” (Research Foundation of The City University of New York, priority 2014, dated 2018).
# “Also recorded” adds a separate entry of the source.
# Experiments:
# Type in all cases: in vivo
# Medicago sativa plants [1] = test: Proline content (ninhydrin assay) in leaves of drought-stressed plants; details: 100 μM; vs drought-stressed alone samples; FIG. 15
# Description: Mature (42 d) Medicago sativa plants were used for the purposes of this study. These were grown in soil medium under controlled, optimal growth conditions and were then subjected to drought stress. Drought was imposed by withholding watering until drought symptoms (loss of turgour, wilting, chlorosis) were observed (6 d after stress imposition). Samples were then re-watered to observe recovery potential after 1 day (7 d). Both NOSH and NOSH-aspirin were applied at 100 μM concentration by foliar spraying at the start of stress imposition. The hybrid donors were diluted in 30% (v/v) methanol. Physiological parameters (stomatal conductance and chlorophyll fluorescence) were measured with a DT-Porometer AP4 (Delta-TDevices, Cambridge, UK) and an OptiSci OS-30p chlorophyll fluorometer (Opti-Sciences, Hudson, N.H., USA) respectively (Filippou et al., 2013). Chlorophyll fluorescence (Fv/Fm) of leaves represents the maximum photochemical efficiency of photosystem II (PSII). Cellular damage was evaluated by lipid peroxidation levels (TBARS content), nitric oxide (NO) content (nitrosative stress) and hydrogen peroxide (H2O2) content (oxidative stress) as previously described (Filippou et al., 2011; Tanou et al., 2012), while osmoprotective capacity was evaluated by proline content (ninhydrin assay) as previously described (Antoniou et al., 2013). […]
# Medicago sativa plants [2] = test: Antioxidant enzyme activities (SOD and CAT) in leaves of drought-stressed plants; details: 7 d, after rewatering, vs stressed-alone plants; for SOD enzymatic activity: FIG. 16A; for CAT enzymatic activity: FIG. 16B
# Description: Mature (42 d) Medicago sativa plants were used for the purposes of this study. These were grown in soil medium under controlled, optimal growth conditions and were then subjected to drought stress. Drought was imposed by withholding watering until drought symptoms (loss of turgour, wilting, chlorosis) were observed (6 d after stress imposition). Samples were then re-watered to observe recovery potential after 1 day (7 d). Both NOSH and NOSH-aspirin were applied at 100 μM concentration by foliar spraying at the start of stress imposition. The hybrid donors were diluted in 30% (v/v) methanol. Physiological parameters (stomatal conductance and chlorophyll fluorescence) were measured with a DT-Porometer AP4 (Delta-TDevices, Cambridge, UK) and an OptiSci OS-30p chlorophyll fluorometer (Opti-Sciences, Hudson, N.H., USA) respectively (Filippou et al., 2013). Chlorophyll fluorescence (Fv/Fm) of leaves represents the maximum photochemical efficiency of photosystem II (PSII). Cellular damage was evaluated by lipid peroxidation levels (TBARS content), nitric oxide (NO) content (nitrosative stress) and hydrogen peroxide (H2O2) content (oxidative stress) as previously described (Filippou et al., 2011; Tanou et al., 2012), while osmoprotective capacity was evaluated by proline content (ninhydrin assay) as previously described (Antoniou et al., 2013). Antioxidant enzyme activities (SOD and CAT) were measured as previously described (Filippou et al., 2014). Real-time RT-PCR gene expression analysis was carried out using a Biorad IQ5 thermocycler as previously described (Filippou et al., 2013). Relative quantification of gene expression and statistical analysis of all qRT-PCR data (pairwise fixed reallocation randomization test) were performed using the REST software according to Pfaffl et al. (2002). The actin 11 gene was used as a housekeeping reference gene. All analyses were carried out using three independent biological pools of samples as replicates (with a minimum of fifteen independent plants per pooled sample). The experimental setup is shown schematically in FIG. 8.
# The enzymatic activity of two key antioxidants (SOD and CAT) were evaluated. SOD dismutates superoxide radicals to hydrogen peroxide, while CAT directly scavenges hydrogen peroxide. Both enzymes appear to be regulated in response to stress and priming agent pretreatment in a differential manner (FIG. 16). […] In any case, it should be noted that the cellular enzymatic antioxidant battery linked with ROS scavenging is very complex involving several other components (e.g. APX), isoforms in several compartments (e.g. peroxisomes, chloroplasts, mitochondria), as well as non-enzymatic antioxidants (e.g. ascorbic acid, tocopherols and glutathione).
# [3] = system: Medicago truncatula plants; test: Lipid peroxidation (leaf MDA/TBARS content) in drought-stressed plants; details: for leaf MDA content (lipid peroxidation): diluted in 70% (v/v) MetOH, FIG. 1
# Text: Cellular damage in leaves can be measured by determining lipid peroxidation (Malondialdehyde [MDA] content) and hydrogen peroxide (H2O2) levels. Lipid peroxidation is a widely used stress indicator of plant membranes. For example, the method described by Heath and Packer is the basic protocol used or adapted in numerous studies dealing with lipid peroxidation. See Heath R L, Packer L. 1968, Photoperoxidation in isolated chloroplasts. I. Kinetics and stoichiometry of fatty acid peroxidation. Archives in Biochemistry and Biophysics 125, 189-198. Measuring hydrogen peroxide levels is also well known in the art.
# Mature (40 d) Medicago truncatula ecotype Jemalong A17 plants were used for the purposes of this study. These were grown in soil medium under controlled, optimal growth conditions and were then subjected to drought stress. Drought was imposed by withholding watering for 9 d (for detailed growth and stress conditions see Filippou et al., 2011). Both NOSH and NOSH-aspirin were applied at 100 μM concentration by foliar spraying at the start of stress imposition. The hybrid donors were diluted in 70% (v/v) and 30% (v/v) methanol, 20% (v/v) acetone or 20% (v/v) DMSO. Cellular damage was evaluated by lipid peroxidation levels (TBARS content) and hydrogen peroxide (H2O2) content as previously described (Filippou et al., 2011; Tanou et al., 2012), while osmoprotective capacity was evaluated by proline content (ninhydrin assay) as previously described (Antoniou et al., 2013). Real-time RT-PCR gene expression analysis was carried out using a Biorad IQ5 thermocycler as previously described (Filippou et al., 2013b). Relative quantification of gene expression and statistical analysis of all qRT-PCR data (pairwise fixed reallocation randomization test) were performed using the REST software according to Pfaffl et al. (2002). The actin 11 gene was used as a housekeeping reference gene. All analyses were carried out using three independent biological pools of samples as replicates (with a minimum of three independent plants per pooled sample).
# An examination of cellular damage levels was performed by means of spectrophotometric determination of lipid peroxidation.
# [4] = system: Medicago truncatula plants; test: Proline content (ninhydrin assay) in leaves of drought-stressed plants; details: 100 μM, 30% (v/v) MetOH; vs drought-stressed alone samples; FIG. 6
# Description: Mature (40 d) Medicago truncatula ecotype Jemalong A17 plants were used for the purposes of this study. These were grown in soil medium under controlled, optimal growth conditions and were then subjected to drought stress. Drought was imposed by withholding watering for 9 d (for detailed growth and stress conditions see Filippou et al., 2011). Both NOSH and NOSH-aspirin were applied at 100 μM concentration by foliar spraying at the start of stress imposition. The hybrid donors were diluted in 70% (v/v) and 30% (v/v) methanol, 20% (v/v) acetone or 20% (v/v) DMSO. Cellular damage was evaluated by lipid peroxidation levels (TBARS content) and hydrogen peroxide (H2O2) content as previously described (Filippou et al., 2011; Tanou et al., 2012), while osmoprotective capacity was evaluated by proline content (ninhydrin assay) as previously described (Antoniou et al., 2013). […] Relative quantification of gene expression and statistical analysis of all qRT-PCR data (pairwise fixed reallocation randomization test) were performed using the REST software according to Pfaffl et al. (2002). […] In addition, proline content was evaluated as proline is a major osmoprotective molecule involved in the defense response of plants to abiotic stress conditions (Filippou et al., 2013b).
# [5] = system: Medicago truncatula plants; test: Real-time RT-PCR gene expression in leaves of drought-stressed plants; details: pre-treated and stressed vs stressed alone plants; 30% MetOH; FIG. 7
# [6] = 100 μM foliar spraying, drought 9 d
SMILES,proline content (Medicago sativa plants [1]),SOD enzymatic activity (Medicago sativa plants [2]),CAT enzymatic activity (Medicago sativa plants [2]),"leaf MDA content (lipid peroxidation) [3, 6]",proline content [4],FeSOD relative gene expression [5],P5CR relative gene expression [5],P5CS relative gene expression [5],cAPX relative gene expression [5],"lipid peroxidation levels (leaf MDA content) ([3]; 100 μM foliar spraying, 30% (v/v) MetOH, drought 9 d, vs drought-stressed control, FIG. 2)","lipid peroxidation levels ([3]; 100 μM, solvent 20% DMSO or 20% acetone (solvent itself toxic))"
O=C(CCCO[N+](=O)[O-])Oc1ccc(-c2cc(=S)ss2)cc1 [NOSH],significantly lower proline content,significantly induced,increased CAT enzymatic activity; also recorded: significantly induced,lowered,–,–,–,–,–,–,–
O=C(CCCO[N+](=O)[O-])Oc1ccccc1C(=O)Oc1ccc(-c2cc(=S)ss2)cc1 [NOSH-A],significantly lower proline content,significantly induced,increased CAT enzymatic activity; also recorded: significantly induced,statistically significant protection,increased proline content,significant induction,significant induction,significant induction,significant suppression,significantly lower lipid peroxidation levels,lower lipid peroxidation levels
